Reference: patent publication US20180213790A1, “COMPOSITIONS AND USES THEREOF FOR CONTROLLING ECTOPARASITES IN NON-HUMAN MAMMALS” (priority 2015, published 2018)
Like-named read-outs stand apart in the source and are kept apart here.

Columns and labels:
[1] = test system: Ctenocephalides felis; conditions: for EC50 (ppm) Total amount of actives (ppm): total of dinotefuran and fipronil; for EC50 (ppm) Dinotefuran: amount of dinotefuran
Protocol: Insecticidal activity of dinotefuran, fipronil and dinotefuran/fipronil combinations at different ratios was evaluated using an in vitro coated-vial bioassay. Serial dilutions of test compounds, individually or in combination, were conducted with an acetone/triton solution+0.5% DMSO from a dinotefuran starting dose at 100 ppm and from a fipronil starting dose at 50 ppm. Vials were treated with dinotefuran, fipronil, dinotefuran/fipronil (tested at 6 ratios). Vials were capped and allowed to dry for at least 4 hours before the addition of 10 newly emerged (0-7 days old) unfed adult fleas (Ctenocephalides felis). Flea susceptibility was assessed at 6, 24 and 48 hours post-exposure by evaluating mortality. The EC50 and EC90 values were calculated based on Median-Effect Principle (Chu, 2006. Theoretical Basis, Experimental design, and Computerized Simulation of Synergism and Antagonism in drug Combination studies. Pharmacological reviews, 58(3):621-681) using COMPUSYN (version 1.0). EC50 and EC90 are defined as the amount of drugs, which causes respectively a 50% and 90% flea mortality. Combination indexes (CI) at EC50 and EC90 were calculated to characterize the interaction of each combination: synergism (CI<1), antagonism (CI>1) and additive effect (CI=1) and a combination index (CI) values were calculated at 48 hours of exposure to assess the potential for synergistic activity (Chou, Pharmacol. Rev. 2006, 58, 621-681; Chou, Drug combination studies and their synergy quantification using the Chou-Talalay method, Cancer. Res., 2010, 70: 440-446).

[2] = test system: Rhipicephalus sanguineus; test: in vitro coated-vial bioassay, activity against ticks; conditions: for mortality at 0.206 ppm / mortality at 0.617 ppm / mortality at 1.852 ppm / mortality at 5.556 ppm / mortality at 16.667 ppm / mortality at 50 ppm: Rhipicephalus sanguineus; for mortality at 0.206 ppm: D 0.000 ppm + F 0.206 ppm; for mortality at 0.617 ppm: D 0.000 ppm + F 0.617 ppm; for mortality at 1.852 ppm: D 0.000 ppm + F 1.852 ppm; for mortality at 5.556 ppm: D 0.000 ppm + F 5.556 ppm; for mortality at 16.667 ppm: D 0.000 ppm + F 16.667 ppm; for mortality at 50 ppm: D 0.000 ppm + F 50.000 ppm; for EC50 (ppm) Total amount of actives (ppm): total of dinotefuran and fipronil
Protocol: Tick susceptibility was assessed at 12, 24 and 48 hours post-exposure by evaluating mortality.

[3] = 12 H, read-out: Mortality (%) 12 H
[4] = 24 H, read-out: Mortality (%) 24 H
[5] = 48 H, read-out: Mortality (%) 48 H

Structure (SMILES): N#Cc1nn(-c2c(Cl)cc(C(F)(F)F)cc2Cl)c(N)c1[S+]([O-])C(F)(F)F (racemic) [D:F = 0:1, (RS)-5-amino-1-[2,6-dichloro-4-(trifluoromethyl)phenyl]-4-(trifluoromethylsulfinyl)-1H-pyrazole-3-carbonitrile]
- EC50 (ppm) Fiproml ([1]; Table 2, fleas, amount of fipronil, alone or in the combination): 13.83 ppm
- EC50 (ppm) Total amount of actives (ppm) ([1]; Table 2, fleas): 13.83 ppm
- mortality at 0.206 ppm [2, 3]: 0%
- mortality at 0.206 ppm [2, 4]: 0%
- mortality at 0.206 ppm [2, 5]: 0%
- mortality at 0.617 ppm [2, 3]: 0%
- mortality at 0.617 ppm [2, 4]: 0%
- mortality at 0.617 ppm [2, 5]: 10%
- mortality at 1.852 ppm [2, 3]: 0%
- mortality at 1.852 ppm [2, 4]: 0%
- mortality at 1.852 ppm [2, 5]: 0%
- mortality at 5.556 ppm [2, 3]: 0%
- mortality at 5.556 ppm [2, 4]: 20%
- mortality at 5.556 ppm [2, 5]: 60%
- mortality at 16.667 ppm [2, 3]: 60%
- mortality at 16.667 ppm [2, 4]: 80%
- mortality at 16.667 ppm [2, 5]: 100%
- mortality at 50 ppm [2, 3]: 60%
- mortality at 50 ppm [2, 4]: 100%
- mortality at 50 ppm [2, 5]: 100%
- EC50 (ppm) Fipronil ([2]; Table 5, ticks, amount of fipronil): 3.77 ppm
- EC50 (ppm) Total amount of actives (ppm) ([2]; Table 5, ticks): 3.77 ppm

Structure (SMILES): CN/C(=N\[N+](=O)[O-])NCC1CCOC1 (stereo not drawn) [D:F = 1:0, 2-methyl-l-nitro-3-[(tetrahydro-3-furanyl)methyl] guanidine]
- activity against fleas (in words) [1]: more potent than fipronil
- Mortality (%) 6 H ([1]; D 0.412 ppm + F 0.000 ppm): 0%
- Mortality (%) 24 H ([1]; D 0.412 ppm + F 0.000 ppm): 10%
- Mortality (%) 48 H ([1]; D 0.412 ppm + F 0.000 ppm): 0%
- Mortality (%) 6 H ([1]; D 1.235 ppm + F 0.000 ppm): 0%
- Mortality (%) 24 H ([1]; D 1.235 ppm + F 0.000 ppm): 10%
- Mortality (%) 48 H ([1]; D 1.235 ppm + F 0.000 ppm): 20%
- Mortality (%) 6 H ([1]; D 3.704 ppm + F 0.000 ppm): 0%
- Mortality (%) 24 H ([1]; D 3.704 ppm + F 0.000 ppm): 20%
- Mortality (%) 48 H ([1]; D 3.704 ppm + F 0.000 ppm): 50%
- Mortality (%) 6 H ([1]; D 11.111 ppm + F 0.000 ppm): 10%
- Mortality (%) 24 H ([1]; D 11.111 ppm + F 0.000 ppm): 30%
- Mortality (%) 48 H ([1]; D 11.111 ppm + F 0.000 ppm): 60%
- Mortality (%) 6 H ([1]; D 33.333 ppm + F 0.000 ppm): 0%
- Mortality (%) 24 H ([1]; D 33.333 ppm + F 0.000 ppm): 10%
- Mortality (%) 48 H ([1]; D 33.333 ppm + F 0.000 ppm): 80%
- Mortality (%) 6 H ([1]; D 100.000 ppm + F 0.000 ppm): 40%
- Mortality (%) 24 H ([1]; D 100.000 ppm + F 0.000 ppm): 80%
- Mortality (%) 48 H ([1]; D 100.000 ppm + F 0.000 ppm): 90%
- EC50 (ppm) Dinotefuran ([1]; Table 2, fleas, alone or in the combination): 8.05 ppm
- EC50 (ppm) Total amount of actives (ppm) ([1]; Table 2, fleas): 8.05 ppm
- EC50 (ppm) Dinotefuran ([1]; Table 3 (head EC50, text says EC90), fleas): 50.87 ppm
- acaricidal activity against ticks (in words) [2]: not active
- Mortality (%) 12 H ([2]; D 0.412 ppm + F 0.000 ppm, 12 H): 0%
- Mortality (%) 24 H ([2]; D 0.412 ppm + F 0.000 ppm, 24 H): 0%
- Mortality (%) 48 H ([2]; D 0.412 ppm + F 0.000 ppm, 48 H): 0%
- Mortality (%) 12 H ([2]; D 1.235 ppm + F 0.000 ppm, 12 H): 0%
- Mortality (%) 24 H ([2]; D 1.235 ppm + F 0.000 ppm, 24 H): 0%
- Mortality (%) 48 H ([2]; D 1.235 ppm + F 0.000 ppm, 48 H): 0%
- Mortality (%) 12 H ([2]; D 3.704 ppm + F 0.000 ppm, 12 H): 0%
- Mortality (%) 24 H ([2]; D 3.704 ppm + F 0.000 ppm, 24 H): 0%
- Mortality (%) 48 H ([2]; D 3.704 ppm + F 0.000 ppm, 48 H): 0%
- Mortality (%) 12 H ([2]; D 11.111 ppm + F 0.000 ppm, 12 H): 0%
- Mortality (%) 24 H ([2]; D 11.111 ppm + F 0.000 ppm, 24 H): 0%
- Mortality (%) 48 H ([2]; D 11.111 ppm + F 0.000 ppm, 48 H): 0%
- Mortality (%) 12 H ([2]; D 33.333 ppm + F 0.000 ppm, 12 H): 0%
- Mortality (%) 24 H ([2]; D 33.333 ppm + F 0.000 ppm, 24 H): 0%
- Mortality (%) 48 H ([2]; D 33.333 ppm + F 0.000 ppm, 48 H): 0%
- Mortality (%) 12 H ([2]; D 100.000 ppm + F 0.000 ppm, 12 H): 0%
- Mortality (%) 24 H ([2]; D 100.000 ppm + F 0.000 ppm, 24 H): 0%
- Mortality (%) 48 H ([2]; D 100.000 ppm + F 0.000 ppm, 48 H): 0%
- EC50 (ppm) Dinotefuran ([2]; Table 5, ticks, amount of dinotefuran): >100 ppm
- EC50 (ppm) Total amount of actives (ppm) ([2]; Table 5, ticks): 100 ppm
